Test results as given in patent US7452908B2, “Amide derivatives” (Banyu Pharmaceutical Co., Ltd., priority 1999, dated 2008).

Biological target: T1, M3 receptor (Canis lupus familiaris, UniProt A0A8I3N190)
T1 construct: from tissue; host or cells: whole animal, male beagle dogs (in vivo, airway)
Test: Antagonism to M3 receptor: bronchodilation in anesthetized dogs (methacholine provocation test)
Type: in vivo, beagle dogs
Details: inhalation of 1 mg/ml for 10 minutes, methacholine threshold four hours after administration
Procedure: The bronchodilation action of inhaled test compound was evaluated by measuring the compounds' inhibitory action on respiratory resistance-increasing reaction induced by a methacholine provocation test. For the experiment, 12 to 36 months old male beagle dogs (weighing 10-15 kg) were used. After being anesthetized by intravenous pentobarbital administration (30 mg/kg), the dogs were intubated cannulae in their trachea. After their respiration became stable, the cannulae were connected with Astograph (TCK-6100H, Chest) and a methacholine provocation test by 3 Hz oscillation method was conducted. […] The methacholine concentration at which the respiratory resistance increased to twice the initial value was recorded as the methacholine reaction threshold value. Before evaluating the test compounds, the methacholine reaction threshold value^1) under no drug treatment was measured at least twice at a week's interval, to select the dogs showing reproducible reaction.
The inhaling administration of each test compound (1 mg/ml) was conducted for 10 minutes under pentobarbital anesthetization (30 mg/kg, i.v.), with the nebulizer in the Astograph. […] The bronchodilator activity (shift value) of each tested compound was determined according to the following equation: […]

T1 sequence (A0A8I3N190 1-590): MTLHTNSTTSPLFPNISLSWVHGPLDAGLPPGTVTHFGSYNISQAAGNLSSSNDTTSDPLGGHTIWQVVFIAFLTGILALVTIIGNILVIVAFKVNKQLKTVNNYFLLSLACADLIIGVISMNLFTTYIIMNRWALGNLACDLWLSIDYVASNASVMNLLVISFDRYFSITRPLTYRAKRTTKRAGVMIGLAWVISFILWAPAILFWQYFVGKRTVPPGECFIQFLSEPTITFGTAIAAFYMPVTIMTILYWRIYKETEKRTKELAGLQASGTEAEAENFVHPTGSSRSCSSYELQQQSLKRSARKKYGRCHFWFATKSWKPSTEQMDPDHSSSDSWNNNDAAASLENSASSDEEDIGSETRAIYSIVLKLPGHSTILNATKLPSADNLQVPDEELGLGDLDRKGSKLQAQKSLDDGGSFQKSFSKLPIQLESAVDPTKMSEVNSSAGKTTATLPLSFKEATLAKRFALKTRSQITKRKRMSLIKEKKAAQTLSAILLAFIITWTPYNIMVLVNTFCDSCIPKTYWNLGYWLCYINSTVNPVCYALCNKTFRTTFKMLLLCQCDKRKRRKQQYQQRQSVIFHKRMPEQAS

Shift (fold) Airway constriction M3: 20.2 fold
Compound: CC[N+]1(CC)CCC[C@H](CNC(=O)[C@H]2CCCN2C(=O)[C@@H]2C[C@@H](O)CN2C(=O)CC(c2ccccc2)(c2ccccc2)c2ccccc2)C1.[Cl-] [Example 133, (3R)-1,1-diethyl-3-({({(2R)-1-({(2S,4R)-4-hydroxy-1-(3,3,3-triphenylpropanoyl)-2-pyrrolidinyl}carbonyl)-2-pyrrolidinyl}carbonyl)amino}methyl)piperidinium chloride]
